The values that follow come from US20090054332A1, “THOMBOPOIETIN PEPTIDE CONJUGATES” (CONJUCHEM BIOTECHNOLOGIES, INC., priority 2007, published 2009).

Where no end group is shown, it is not given here. Side-chain parts run from the residue outwards. [ ]: non-standard residue; d: D form. The star is where a group is joined. K(MPA) = lysine carrying the MPA reactive group; Propanoyl(3-maleimido) = O=C1C=CC(=O)N1CCC(=O)*; MPA = maleimido propionic acid reactive group; Aoc = NCCCCCCCC(=O)O

One data set deals with Platelet count. The data set can be described thus: In vivo potency: platelet count after a single injection in CD-1 mice. Also noted: species or system mouse. Conditions: female CD-1 mice, single intravenous injection, 10 nmol/kg, 6 days postdose vs prior to dosing, n=4/group. Here is the method: Ten to twelve-week old female CD-1 mice were administered with a single injection of the TPO derivatives indicated below at 10 nmol/kg (n=4/group). The DAC™ compounds in Table 4 are variants of TPO peptides modified to include an MPA reactive group, thereby forming an MPA-modified unconjugated peptides. The DAC™ compounds in Table 4 were administered intravenously. Albumin conjugates of the DAC™ compounds (also referred to herein as Preformed Conjugates (PC)) were injected subcutaneously. For each mouse, a blood sample was collected prior to dosing and 6 days postdose via the […]. Platelet counts were measured using an ABC Vet analyzer using standard procedures.
Platelet count fold increases are reported in Table 4 and 5 for MPA-modified TPO peptide and the albumin TPO conjugate, respectively.
“IEGPTLRQWLAARA-GGGGGGGG-IEGPTLRQWLAARA-(OA)-K-(reactive group) (IEGPTLRQWLAARAGGGGGGGGIEGPTLRQWLAARA-{Aoc-K(MPA)}) [MPA-modified form of SEQ ID NO: 190, unconjugated DAC compound]”: the “Platelet Count Fold Increase” value was determined as 5.0 fold.
Same read-out and setting: with “IEGPTLRQWLAARA-GGGGGGGG-IEGPTLRQWLAARA-OA-OA-K-(reactive group) (IEGPTLRQWLAARAGGGGGGGGIEGPTLRQWLAARA-{Aoc-Aoc-K(MPA)}) [MPA-modified form of SEQ ID NO: 169, unconjugated DAC compound]” the figure was 4.4 fold; with “(reactive group)-GGGGG-IEGPTLRQWLAARA-GGGGGGGG-LQGPTLRAWRAGMA ({Propanoyl(3-maleimido)}-GGGGGIEGPTLRQWLAARAGGGGGGGGLQGPTLRAWRAGMA) [MPA-modified form of SEQ ID NO: 185, unconjugated DAC compound]”, less than 3 fold; with “(reactive group)-GGGGG-ARAALWQRLTPGEI-GGGGGGGG-ARAALWQRLTPGEI ({Propanoyl(3-maleimido)}-GGGGGARAALWQRLTPGEIGGGGGGGGARAALWQRLTPGEI) [MPA-modified form of SEQ ID NO: 125, unconjugated DAC compound]”, less than 3 fold.
Same read-out and setting: to “(reactive group)-GGGGG-IEGPTLRQWLAARA-GGGGGGGG-ARAALWQRLTPGEI ({Propanoyl(3-maleimido)}-GGGGGIEGPTLRQWLAARAGGGGGGGGARAALWQRLTPGEI) [MPA-modified form of SEQ ID NO: 117, unconjugated DAC compound]” belongs less than 3 fold.
Same read-out and setting: to “Ac-ARAALWQRLTPGEI-GGGGGGGG-IEGPTLRQWLAARAI-K(OA-reactive group) (Ac-ARAALWQRLTPGEIGGGGGGGGIEGPTLRQWLAARAIK([Aoc-Propanoyl(3-maleimido)])) [MPA-modified form of SEQ ID NO: 123, unconjugated DAC compound]” belongs less than 3 fold.
As to “(reactive group)-GGGGG-LQGPTLRAWRAGMA-GGGGGGGG-IEGPTLRQWLAARA ({Propanoyl(3-maleimido)}-GGGGGLQGPTLRAWRAGMAGGGGGGGGIEGPTLRQWLAARA) [MPA-modified form of SEQ ID NO: 184, unconjugated DAC compound]”, the “Platelet Count Fold Increase” value is less than 3 fold.
Same read-out and setting: to “IEGPTLRQWLAARA-GGGGGGGG-IEGPTLRQWLAARA-K-OA-OA-(reactive group) (IEGPTLRQWLAARAGGGGGGGGIEGPTLRQWLAARAK-{Aoc-Aoc-MPA}; not fully specified) [MPA-modified form of SEQ ID NO: 170, unconjugated DAC compound]” belongs 4.7 fold; to “Ac-ARAALWQRLTPGEI-GGGGGGGG-ARAALWQRLTPGEI-K(OA-reactive group) (Ac-ARAALWQRLTPGEIGGGGGGGGARAALWQRLTPGEIK([Aoc-Propanoyl(3-maleimido)])) [MPA-modified form of SEQ ID NO: 127, unconjugated DAC compound]”, less than 3 fold.
Turning to “LQGPTLRAWRAGMA-GGGGGGGG-IEGPTLRQWLAARA-(OA)-K-(reactive group) (LQGPTLRAWRAGMAGGGGGGGGIEGPTLRQWLAARA-{Aoc-K(MPA)}) [MPA-modified form of SEQ ID NO: 191, unconjugated DAC compound]”, the “Platelet Count Fold Increase” value is listed as less than 3 fold.
For the substance “(reactive group)-GGGGG-IEGPTLRQWLAARA-GGGGGGGG-IEGPTLRQWLAARA ({Propanoyl(3-maleimido)}-GGGGGIEGPTLRQWLAARAGGGGGGGGIEGPTLRQWLAARA) [MPA-modified form of SEQ ID NO: 168, unconjugated DAC compound]”, the “Platelet Count Fold Increase” value stood at 5.1 fold.
Still for that read-out and setting: with “(reactive group)-GGGGG-ARAALWQRLTPGEI-GGGGGGGG-IEGPTLRQWLAARA ({Propanoyl(3-maleimido)}-GGGGGARAALWQRLTPGEIGGGGGGGGIEGPTLRQWLAARA) [MPA-modified form of SEQ ID NO: 121, unconjugated DAC compound]” the figure was less than 3 fold.

The data set is the same for the next values; noted with them: female CD-1 mice, single subcutaneous injection of preformed albumin conjugate, 10 nmol/kg, 6 days postdose vs prior to dosing, n=4/group.
As for “Albumin-conjugate of SEQ ID NO: 170: Preformed albumin conjugate (PC) of the MPA-modified TPO peptide of SEQ ID NO: 170 (IEGPTLRQWLAARAGGGGGGGGIEGPTLRQWLAARAK[Aoc]; not fully specified; printed as IEGPTLRQWLAARA-GGGGGGGG-IEGPTLRQWLAARA-K-OA-; also: MPA-linked preformed albumin conjugate, site not given here)”, the “Platelet Count Fold Increase” value is 4.4 fold.
On the same count and under the same terms, with “Albumin-conjugate of SEQ ID NO: 169: Preformed albumin conjugate (PC) of the MPA-modified TPO peptide of SEQ ID NO: 169 (IEGPTLRQWLAARAGGGGGGGGIEGPTLRQWLAARA-{Aoc-Aoc-MPA}; also: MPA-linked preformed albumin conjugate, site not given here)” the figure was 3.8 fold; with “Albumin-conjugate of SEQ ID NO: 168: Preformed albumin conjugate (PC) of the MPA-modified TPO peptide of SEQ ID NO: 168 ({Propanoyl(3-maleimido)}-GGGGGIEGPTLRQWLAARAGGGGGGGGIEGPTLRQWLAARA; also: MPA-linked preformed albumin conjugate, site not given here)”, 4.3 fold.

System in another data set: not given
Test: not given
The settings on record: phase I trials, adult and pediatric populations; cited from earlier work.
On to “rhTPO: full length, glycosylated molecule known as recombinant human thrombopoietin”, for which the Safety of administration result is listed as “safe administration”.
